According to PMC5997322, “Imaging c-Met expression using 18F-labeled binding peptide in human cancer xenografts” (PLoS ONE, 2018):
Residues, ends and D or L forms follow the SMILES beside them. *: point of attachment. Propanoyl(2-F) = CC(F)C(=O)*

Tests used:
UM-SCC-22B cells [1] = assay: Cell uptake and blocking of [18F]FP-Met-pep1; type: cell-based, human
Method: (§1) For cell uptake measurement, UM-SCC-22B cells were seeded into a 24-well plate at a density of 1×10^5 cells per well and incubated with 18.5 kBq (0.5 μCi)/well of [^18F]FP-Met-pep1 at 37°C for 15, 30 and 60 min. Tumor cells were then washed twice with cold PBS and harvested by adding 250 μl of 0.1 N NaOH. Internalization assay was preformed similarly to the procedure described above. After 15, 30 and 60 min incubation of UM-SCC-22B cells with [^18F]FP-Met-pep1 at 37°C, the cells were washed twice with cold PBS and then incubated for 1 min with acid-washing-buffer (50 mM glycine, 0.1 M NaCl, pH = 2.8) to remove surface bound radioactive ligand. Thereafter, the cells were washed twice with cold PBS and harvested by adding 250 μl of 0.1 N NaOH. The blocking assay was preformed similarly to the procedure described above except that the unlabeled c-Met binding peptide was added into the wells (500 μg/well) and incubated for 15 min at 37°C before adding [^18F]FP-Met-pep1. For efflux experiment, all UM-SCC-22B cells in a 24-well plate were initially incubated with 18.5 kBq (0.5 μCi)/well of [^18F]FP-Met-pep1 at 37°C for 1 hour. […] The cell suspensions were collected and measured in a gamma counter and the cell uptake, internalization and efflux were expressed as the percentage of the added dose (%AD) after decay correction to EOB. […]

UM-SCC-22B cells [2] = assay: Internalization assay (acid wash); type: cell-based, human; conditions: 37°C, early phase, acid wash pH 2.8
Method: as §1

UM-SCC-22B cells [3] = assay: Efflux experiment; type: cell-based, human; conditions: UM-SCC-22B cells loaded 1 h at 37°C, then serum-free DMEM
Method: as §1

[4] = MicroPET imaging, ROI quantification; type: in vivo, mice; conditions: male, athymic nu/nu, mouse, iv, total radioactivity, 3.7 MBq i.v., mean ± SD, n = 4
Method: (§2) The human head and neck squamous carcinoma (HNSCC) cell line UM-SCC-22B (obtained from the University of Michigan) was used in this study. The cells were maintained in DMEM supplemented with 10% fetal bovine serum (FBS), 1% glutamine, 100 unit/ml penicillin, and […] streptomycin (Invitrogen, CA). Subcutaneous UM-SCC-22B tumor model was established in 4 to 6 weeks old male athymic nu/nu mice (Harlan Laboratories). Typically, 5 × 10^6 cells suspended in 50 μl of PBS were injected in the right or left front shoulder. Tumor growth was followed by caliper measurements of perpendicular diameters of the tumor. The tumor volume was estimated by the formula: tumor volume = a×b^2 /2, where a and b were the tumor length and width, respectively, in millimeters. Small animal PET studies were performed when the tumor volume reached 100 to 200 mm^3.
(§3) To perform a microCT scan by a high-resolution Inveon MicroCT scanner (Siemens Medical Solutions) before microPET scan, an anesthetized nude mouse bearing UM-SCC-22B tumor was mounted on a turntable bed that could be moved automatically in the axial direction. Whole body CT acquisition parameters were as follows: voltage 70 kVp, current 400 μA, angular sampling 1° per projection for a full 360° scan, and effective pixel size 58 μm. Scan time was approximately 12 min. The image was reconstructed in real-time by a modified Feldkamp cone bean algorithm with a Shepp-Logan filter and appropriate center offset determined prior to scanning. PET scans were performed using an Inveon microPET scanner (Siemens Medical Solutions). Tumor-bearing mice were anesthetized using isoflurane/O2 (1.5–2% v/v) and intravenously injected with 3.7 MBq (100 μCi) of [^18F]FP-Met-pep1 in a volume of 100 μl saline. For blocking experiments, [^18F]FP-Met-pep1 was co-injected with 500 μg of unlabeled Met-pep1 peptide. Each group contained four mice. The images were reconstructed by a three-dimensional ordered subsets expectation maximization (3D-OSEM) algorithm with maximum a posteriori (MAP) algorithm and the frame rates were 10 × 30s, 5 × 60s, 5 × 120s and 10 × 240s, and no correction was applied for attenuation or scatter. Static images at 1 h time point were also acquired as 10-min static images for region of interest (ROI) quantification. Image analysis was done using ASI Pro VMTM software. PET/CT images were co-registered and fused automatically with ASI software. For each microPET scan, three-dimensional ROIs were drawn over the tumor, liver, kidney, and muscle on decay-corrected whole-body coronal images. The average radioactivity concentration within a tumor or an organ was obtained from mean pixel values within the ROI volume, which were converted to counts per milliliter by using a pre-determined conversion factor.

[5] = system: UM-SCC-22B tumor-bearing mice; assay: MicroPET imaging, ROI quantification; type: in vivo
Method: as §2, §3

[6] = Ex vivo biodistribution (gamma-counting); type: in vivo, mice; conditions: male, athymic nu/nu, mouse, iv, total radioactivity, 30 min after injection, mean ± SD, n = 4
Method: as §2
After microPET imaging, the blood of mice bearing UM-SCC-22B tumor xenografts was drawn from the orbital sinus, then mice were sacrificed by cervical dislocation and selected organs were excised. Blood, tumor, and major organs tissues were collected and weighed (wet weight). The radioactivity in each tissue was measured using a gamma-counter (Packard Instrument). Distribution of activity was calculated as percentage of injected dose per gram of organ (%ID/g). For each mouse, the radioactivity of the tissue samples was calibrated against a known aliquot of the injected dose and normalized to a body mass of 30 g. Values were expressed as mean ± SD for a group of four animals.

tissue uptake at 0.5 h ([4]; liver, 30 min post-injection, read-out: liver uptake (microPET)): 11.5 ± 0.78 %ID/g
tissue uptake at 0.5 h ([4]; tumor (UM-SCC-22B xenograft), UM-SCC-22B tumor, 30 min post injection, read-out: tumor uptake (microPET)): 4.72 ± 0.67 %ID/g
tissue uptake at 1 h ([4]; tumor (UM-SCC-22B xenograft), UM-SCC-22B tumor, 60 min post injection): 3.83 ± 0.55 %ID/g
tissue uptake at 2 h ([4]; tumor (UM-SCC-22B xenograft), UM-SCC-22B tumor, 120 min post injection): 3.11 ± 0.25 %ID/g
muscle uptake (microPET) ([5]; all timepoints (30, 60, 120 min)): very low uptake
radioactivity excreted, primarily through the renal pathway ([5]; within 2 h after injection, dynamic microPET (S1 Fig)): about 65%
tissue uptake at 0.5 h ([6]; blood, 3.7 MBq, without blocking, read-out: blood tracer concentration): 1.55 ± 0.48 %ID/g
tissue uptake at 0.5 h ([6]; blood, with 500 μg unlabeled peptide, read-out: blood tracer concentration, after blocking): 2.85 ± 0.76 %ID/g
tissue uptake at 0.5 h ([6]; kidney, 3.7 MBq, blocking state not clearly stated, read-out: kidney tracer accumulation (ex vivo)): 10.5 ± 0.53 %ID/g
tissue uptake at 0.5 h ([6]; liver, 3.7 MBq, blocking state not clearly stated, read-out: liver tracer accumulation (ex vivo)): 5.58 ± 0.45 %ID/g
tissue uptake at 0.5 h ([6]; tumor (UM-SCC-22B xenograft), 3.7 MBq, absence of unlabeled peptide, read-out: tumor uptake (tissue sampling, gamma-counting)): 4.58 ± 0.59 %ID/g
tissue uptake at 0.5 h ([6]; tumor (UM-SCC-22B xenograft), presence of 500 μg unlabeled peptide, read-out: tumor uptake (tissue sampling, gamma-counting), blocked): 0.88 ± 0.35 %ID/g
Structure (SMILES): CC(C)C[C@H](NC(=O)[C@@H](N)Cc1ccc(O)cc1)C(=O)N[C@@H](Cc1ccccc1)C(=O)N[C@@H](CO)C(=O)N[C@H](C(=O)N[C@@H](Cc1c[nH]cn1)C(=O)N[C@@H](Cc1c[nH]c2ccccc12)C(=O)N1CCC[C@H]1C(=O)N1CCC[C@H]1C(=O)N[C@@H](CC(C)C)C(=O)N[C@@H](CCCCNC(=O)C(C)F)C(=O)N[C@@H](C)C(=O)O)C(C)C (some centres unmarked) [[^18F]FP-Met-pep1] (H-YLFSVHWPPLK(Propanoyl(2-F))A-OH)
cell uptake in presence of unlabeled Met-pep1 (blocking) (UM-SCC-22B cells [1]; 500 μg/well unlabeled Met-pep1 pre-incubated 15 min at 37°C): dramatic inhibition of cell uptake
cell uptake (percentage of added dose) (UM-SCC-22B cells [1]; 18.5 kBq (0.5 μCi)/well, 37°C, 30 min incubation (peak), gamma counter, mean ± SD, triplicate wells): 34.52 ± 1.34%
fraction of observed uptake due to internalization (UM-SCC-22B cells [2]): Approximately 2/3
tracer effluxed out of the cells (UM-SCC-22B cells [3]; 15 min): approximately 47%
radiotracer remained bound with the cells (UM-SCC-22B cells [3]; end of incubation (60 min)): about 36%
